Here are results for two compounds from ChEMBL document CHEMBL5715936, “Selective Itk inhibitors block T-cell activation and murine lung inflammation” (Biochemistry, 2004).

Assay [1] addresses Protein kinase C (PKC). In words: Inhibition of PKC (unknown origin) using GST-SLP-76 as peptide substrate incubated for 10 mins in presence of [gamma-33P]ATP by scintillation counter assay. In kind it is protein assay, Homo sapiens.
Assay [2] has as its target T1, Tyrosine-protein kinase ITK/TSK (Homo sapiens) (UniProt Q08881).
T1 sequence (whole entry): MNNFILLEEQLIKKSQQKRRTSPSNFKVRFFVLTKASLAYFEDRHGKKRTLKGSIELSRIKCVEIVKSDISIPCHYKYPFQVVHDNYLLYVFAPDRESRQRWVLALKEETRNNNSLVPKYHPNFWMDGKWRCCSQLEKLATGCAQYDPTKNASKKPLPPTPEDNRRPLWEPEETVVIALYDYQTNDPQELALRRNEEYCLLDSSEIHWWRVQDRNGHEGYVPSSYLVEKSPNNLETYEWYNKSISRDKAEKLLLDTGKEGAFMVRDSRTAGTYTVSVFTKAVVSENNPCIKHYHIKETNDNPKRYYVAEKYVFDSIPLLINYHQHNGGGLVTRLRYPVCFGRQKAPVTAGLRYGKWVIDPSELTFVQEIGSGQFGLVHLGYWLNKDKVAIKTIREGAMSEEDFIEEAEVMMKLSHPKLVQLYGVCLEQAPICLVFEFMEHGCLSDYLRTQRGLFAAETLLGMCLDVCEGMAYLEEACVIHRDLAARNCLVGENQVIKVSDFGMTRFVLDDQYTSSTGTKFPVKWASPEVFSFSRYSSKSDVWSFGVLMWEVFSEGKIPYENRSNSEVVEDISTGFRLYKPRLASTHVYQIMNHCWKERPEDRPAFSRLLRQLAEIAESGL
The assay is described as follows: Inhibition of Itk in human Jurkat T cells assessed as inhibition of IL-2 secretion incubated for 16 hrs in presence of anti-CD3 antibody G19-4 by ELISA analysis. In kind it is cell-based. On the technique in general: An ELISA detects its analyte on a solid surface through an enzyme-linked reagent.

Assay [3] has as its target Epidermal growth factor receptor (Homo sapiens, UniProt P00533). In words: Inhibition of EGFR (unknown origin) using GST-SLP-76 as peptide substrate incubated for 10 mins in presence of [gamma-33P]ATP by scintillation counter assay.
Assay [4] relates to Mus musculus. The assay is described as follows: In vivo inhibition of IL-2 production in Balb/c mouse serum administered for 15 mins in presence of anti-CD3 antibody by ELISA analysis. In kind it is functional, organism-based. Conditions: dose 50-100 mg/kg, route sc.
The target of assay [5] is Tyrosine-protein kinase ITK/TSK (Mus musculus, UniProt Q03526). In words: Inhibition of Itk in mouse EL4 cells assessed as inhibition of IL-2 secretion incubated for 16 hrs in presence of anti-CD3 antibody G19-4 by ELISA analysis. The class given is cell-based.
Tyrosine-protein kinase ITK/TSK, sequence (Q03526 whole entry): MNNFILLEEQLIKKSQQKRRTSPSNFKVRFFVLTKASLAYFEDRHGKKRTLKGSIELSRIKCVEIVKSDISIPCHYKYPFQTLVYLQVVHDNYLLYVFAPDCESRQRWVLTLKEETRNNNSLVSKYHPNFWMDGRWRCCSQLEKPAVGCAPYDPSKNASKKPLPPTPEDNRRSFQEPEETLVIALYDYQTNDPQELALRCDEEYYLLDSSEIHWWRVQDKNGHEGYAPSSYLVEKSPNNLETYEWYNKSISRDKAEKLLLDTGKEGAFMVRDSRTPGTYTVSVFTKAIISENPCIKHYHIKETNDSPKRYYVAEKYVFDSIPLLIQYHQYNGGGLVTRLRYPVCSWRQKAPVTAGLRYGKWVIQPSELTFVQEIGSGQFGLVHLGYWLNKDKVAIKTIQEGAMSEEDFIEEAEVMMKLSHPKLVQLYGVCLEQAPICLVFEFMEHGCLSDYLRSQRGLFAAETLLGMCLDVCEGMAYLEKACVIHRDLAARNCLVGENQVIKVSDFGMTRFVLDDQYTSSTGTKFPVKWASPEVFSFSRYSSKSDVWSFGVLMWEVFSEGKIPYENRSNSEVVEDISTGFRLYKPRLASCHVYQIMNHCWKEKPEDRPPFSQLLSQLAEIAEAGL
The subject of assay [6] is Mus musculus. In words: In vivo inhibition of IL-2 production in Balb/c mouse serum at >=50 mg/kg, sc administered for 15 mins in presence of anti-CD3 antibody by ELISA analysis. The class given is functional, organism-based.
Assay [7] has as its target Cyclin-dependent kinase 2 (Homo sapiens, UniProt P24941). In words: Inhibition of Cdk2 (unknown origin) using GST-SLP-76 as peptide substrate incubated for 10 mins in presence of [gamma-33P]ATP by scintillation counter assay.
Assay [8] deals with Mus musculus. The assay is described as follows: Anti-inflammatory activity against ovalbumin induced Balb/c mouse bronchoalveolar lavage assessed as reduction in total cell infiltration administered twice daily for 3 days by microscopic analysis. In kind it is functional, organism-based. As to conditions: dose 5-25 mg/kg, route sc, time 3.0 day.
Assay [9] relates to Mus musculus. The assay is described as follows: Anti-inflammatory activity against ovalbumin induced Balb/c mouse bronchoalveolar lavage assessed as reduction in eosinophil infiltration administered twice daily for 3 days by microscopic analysis. In kind it is functional, organism-based. Conditions: dose 5-25 mg/kg, route sc, time 3.0 day.

Active and inactive are the calls of the source. The calls are words filed in the database; no cut-off is given here. Where only a bound is given, the exact number is not on record here.

Epidermal growth factor receptor, sequence (P00533 whole entry): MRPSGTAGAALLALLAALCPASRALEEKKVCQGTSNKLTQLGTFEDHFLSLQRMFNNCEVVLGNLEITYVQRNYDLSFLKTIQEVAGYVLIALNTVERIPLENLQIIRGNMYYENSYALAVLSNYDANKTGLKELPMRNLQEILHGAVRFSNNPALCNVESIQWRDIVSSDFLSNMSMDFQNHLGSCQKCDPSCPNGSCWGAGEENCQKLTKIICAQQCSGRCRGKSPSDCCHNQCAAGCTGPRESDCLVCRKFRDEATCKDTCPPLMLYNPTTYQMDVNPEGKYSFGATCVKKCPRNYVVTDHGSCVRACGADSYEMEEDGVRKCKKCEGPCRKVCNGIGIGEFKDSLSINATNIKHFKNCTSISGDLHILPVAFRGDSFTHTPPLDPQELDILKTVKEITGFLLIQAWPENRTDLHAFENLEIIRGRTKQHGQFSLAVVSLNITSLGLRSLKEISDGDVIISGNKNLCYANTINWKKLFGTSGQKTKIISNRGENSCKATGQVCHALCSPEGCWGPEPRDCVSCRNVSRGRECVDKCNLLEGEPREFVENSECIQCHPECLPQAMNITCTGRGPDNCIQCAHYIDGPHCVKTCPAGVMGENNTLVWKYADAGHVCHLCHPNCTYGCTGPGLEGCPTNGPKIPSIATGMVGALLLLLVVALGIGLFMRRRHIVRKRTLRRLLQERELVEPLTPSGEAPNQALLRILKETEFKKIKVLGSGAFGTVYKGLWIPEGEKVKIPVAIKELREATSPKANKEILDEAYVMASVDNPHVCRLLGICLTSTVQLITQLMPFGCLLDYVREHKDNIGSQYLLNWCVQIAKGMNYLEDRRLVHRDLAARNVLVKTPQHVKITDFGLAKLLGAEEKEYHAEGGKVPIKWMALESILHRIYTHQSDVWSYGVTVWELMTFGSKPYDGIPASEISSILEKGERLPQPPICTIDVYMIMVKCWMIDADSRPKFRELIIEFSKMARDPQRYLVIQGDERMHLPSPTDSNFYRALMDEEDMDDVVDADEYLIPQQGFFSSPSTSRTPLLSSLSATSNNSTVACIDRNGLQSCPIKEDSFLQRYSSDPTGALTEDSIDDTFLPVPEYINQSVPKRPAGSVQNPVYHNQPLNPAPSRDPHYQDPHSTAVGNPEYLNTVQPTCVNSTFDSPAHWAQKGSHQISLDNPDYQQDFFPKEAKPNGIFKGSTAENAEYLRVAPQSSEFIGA

Consider `CC(=O)N1CCN(C(=O)c2cc(CSc3cnc(NC(=O)c4ccc(CNC(C)C(C)(C)C)cc4)s3)cc(C)c2C)CC1` (centres undefined), for which the IC50 in assay [1] was 21 µM; in assay [3], over 50 µM; in [5] it was 0.25 µM. Besides, the inhibition result in [2] and in assay [4] was “Dose-Dependent Effect” each time. In addition, in assay [6], the inhibition entry was “Active”.

As to `COc1cc(C)c(Sc2cnc(NC(=O)c3ccc(CNC(C)C(C)(C)C)cc3)s2)cc1C(=O)N1CCN(C(C)=O)CC1` (centres undefined), the IC50 in [7] was 29 µM. For the same compound, the Activity result in assay [8] and in assay [9] was “Dose-Dependent Effect” in each case.

What is called IC50 is the concentration at which inhibition is half-maximal.
